Values of other authors, collected in US20110158922A1, “Skin Care Compositions and Method of Use Thereof” (priority 2008, published 2011).
No end group written: not given here. *: point of attachment. Palmitoyl = CCCCCCCCCCCCCCCC(=O)*

Key:
collagen glycation = details: in vitro
[1] = test system: skin cell energy production; details: topical application
synthesis of GAGs = details: in-vitro study
[2] = test system: T-T dimmers in DNA, DNA repair, cell viability following UV exposure; details: in vitro

Which collagen glycation (collagen glycation) does the source give for `COc1ccc([C@@H]2CC(=O)c3c(O)cc(O[C@@H]4O[C@H](CO[C@@H]5O[C@@H](C)[C@H](O)[C@@H](O)[C@H]5O)[C@@H](O)[C@H](O)[C@H]4O)cc3O2)cc1O` [Hesperidin flavonoids, hesperidin] here?
Its collagen glycation is “inhibit collagen glycation in vitro”.

For `CN(CC(=O)O)C(=N)N` [creatine], which “skin cell energy production” value [1] is on record?
The value was “substantial improvement in skin cell energy production”.

Which “synthesis of GAGs” value (synthesis of GAGs) does the source give for “Palmitoyl-Lysysl-Threonyl-Threonyl-Lysyl-Serine (Palmitoyl-KTTKS) [Palmitoyl pentapeptide-4, peptide derived from a collagen precursor]” here?
Its value is “increase synthesis of GAGs”.

With “ethylbisiminomethylguaiacol manganese chloride” as the compound, how does the DNA repair [2] read?
Its DNA repair is “stimulates DNA repair”.

What about the “cell viability following UV exposure” value [2] of the same compound?
Its value is “increasing cell viability following UV exposure”.

What about the “formation of T-T dimmers in DNA” value ([2]; UV exposure) of the same compound?
Its value is “reduces the formation of T-T dimmers in DNA”.
